Results published in patent US20240376148A1, “MEDICAMENT FOR INHIBITING DIETARY OBESITY AND POLYPEPTIDE USED THEREFOR” (INSTITUTE OF ZOOLOGY, CHINESE ACADEMY OF SCIENCES, priority 2022, published 2024).

What was measured:
[1] = SPF mice feeding experiment (high-fat diet); format: in vivo, C57/B16J mice
Procedure: C57/B16J mice were used in the SPF mice experiment. At the beginning of the experiment, C57/B16J mice were 4 weeks old, and each weighed 15±1 g. They were raised in a room with suitable temperature and humidity control, and the light/dark cycle was 12 hours, free diet and drinking water, and fed with standard laboratory feed (also known as growth and reproduction feed, item number SPFSLFZ003, product of SPF (Beijing) Experimental Animal Technology Co., Ltd.). After one week of adaptation, they were randomly assigned to a cage, 4-6 mice per cage.
A total of 12 treatments were set up, each with 2 cages of C57/B16J mice, and each treatment was subjected to different feeding treatments, specifically as follows:
NC group (i.e. normal diet group): fed with standard laboratory feed (also known as growth and reproduction feed, SPFSLFZ003), free diet and drinking water, each intragastrically administrated with 0.2 ml solvent daily for 8 weeks.
HFD group (i.e. high-fat diet group): fed with high-fat diet, the high-fat diet used was rodent feed (containing 60% fat, D12492, formula reference Le Roy, T., et al. Dysosmobacter welbionis is a newly isolated human commensal bacterium preventing diet-induced obesity and metabolic disorders in mice. Gut (2021).), free diet and drinking water, each intragastrically administrated with 0.2 ml solvent daily for 8 weeks.
D1 group (i.e. high-fat diet+D1 intragastric administration group): fed with high-fat diet, free diet and drinking water. Intragastrically administrated with synthetic D1, 0.75 mg-3 mg/Kg body weight, 0.2 ml, once/day for 8 weeks.
D2 group (i.e. high-fat diet+D2 intragastric administration group): fed with high-fat diet, free diet and drinking water. Intragastrically administrated with synthetic D2, 0.75 mg-3 mg/Kg body weight, 0.2 ml, once/day for 8 weeks.
D3 group (i.e. high-fat diet+D3 intragastric administration group): fed with high-fat diet, free diet and drinking water. Intragastrically administrated with synthetic D3, 0.75 mg-3 mg/Kg body weight, 0.2 ml, once/day for 8 weeks.
D4 group (i.e. high-fat diet+D4 intragastric administration group): fed with high-fat diet, free diet and drinking water. Intragastrically administrated with synthetic D4, 0.75 mg-3 mg/Kg body weight, 0.2 ml, once/day for 8 weeks.
D5 group (i.e. high-fat diet+D5 intragastric administration group): fed with high-fat diet, free diet and drinking water. Intragastrically administrated with synthetic D5, 0.75 mg-3 mg/Kg body weight, 0.2 ml, once/day for 8 weeks.
D6 group (i.e. high-fat diet+D6 intragastric administration group): fed with high-fat diet, free diet and drinking water. Intragastrically administrated with synthetic D6, 0.75 mg-3 mg/Kg body weight, 0.2 ml, once/day for 8 weeks.
D7 group (i.e. high-fat diet+D7 intragastric administration group): fed with high-fat diet, free diet and drinking water. Intragastrically administrated with synthetic D7, 0.75 mg-3 mg/Kg body weight, 0.2 ml, once/day for 8 weeks.
D8 group (i.e. high-fat diet+D8 intragastric administration group): fed with high-fat diet, free diet and drinking water. Intragastrically administrated with synthetic D8, 0.75 mg-3 mg/Kg body weight, 0.2 ml, once/day for 8 weeks.
D9 group (i.e. high-fat diet+D9 intragastric administration group): fed with high-fat diet, free diet and drinking water. Intragastrically administrated with synthetic D9, 0.75 mg-3 mg/Kg body weight, 0.2 ml, once/day for 8 weeks.
D10 group (i.e. high-fat diet+D10 intragastric administration group): fed with high-fat diet, free diet and drinking water. Intragastrically administrated with synthetic D10, 0.75 mg-3 mg/Kg body weight, 0.2 ml, once/day for 8 weeks.
The feed intake was tracked every week. After the experiment, the mice were weighed and photographs were taken to compare the body size of the mice. After that, the mice were killed by cervical dislocation. […]

A. muciniphila [2] = test: qPCR of relative abundance of A. muciniphila in intestinal flora of SPF mice; format: in vivo; conditions: p<0.05
Procedure: In order to verify the changes in the relative abundance of A.muciniphila in the intestinal flora of mice fed with other HD, qPCR experiments were performed on the changes of intestinal flora in mice. Faecal bacterial DNA was extracted from the faeces of mice in the NC, HFD, D1, D2, D3, D5, D7, D8, D9 and D10 groups collected in the pre-SPF mice experiments and then the relative abundance of A. muciniphila was determined using qPCR.

A. muciniphila [3] = test: qPCR of abundance of A. muciniphila in intestine of rhesus monkeys; format: in vivo; conditions: macaque, p<0.05
Description: FIGS. 7A-7H are a graph showing the effect of using D3 on rats and rhesus monkeys in Example 2 of the present invention. FIG. 7A is the schematic diagram of sampling time point in rats; FIG. 7B is the graph showing the results of the growth rate of body weight with different feeding treatments of the rat; FIG. 7C is the graph showing the results of the short-term feed intake measurement of the rat; FIG. 7D is the graph showing the results of the qPCR detection of the abundance of A. muciniphila in intestine of rats with different feeding treatment; FIG. 7E is a schematic diagram of the sampling time point in rhesus monkeys; FIG. 7F is the graph showing the results of the growth rate of body weight with different feeding treatments of rhesus monkeys; FIG. 7G is the feed intake monitoring graphs of rhesus monkeys with different feeding treatments; FIG. 7H is the graph showing the results of the qPCR detection of the abundance of A. muciniphila in intestine of rhesus monkeys with different feeding treatment. The data shown in the figure are mean±standard deviation, the number of repetitions is 5-10, and the significant difference of each group is analyzed by Wilcoxon test. * representing a significance analysis result of P<0.05, ** representing a significance analysis result of P<0.01.
Food intake (unit: g/only/week) and body weight were monitored weekly. […]

Guca2b = test: qPCR of Guca2b mRNA in the ileum of rats; format: in vivo
Procedure: qPCR gene expression was carried out using the StepOnePlus real-time fluorescent quantitative PCR system. Three technical replicates were performed for each sample, and the identity and purity of the amplified product were checked by analyzing the melting curve at the end of the amplification. Gene expression results were referenced to the percent expression of each gene normalized to glyceraldehyde-3-phosphate dehydrogenase (GAPDH).

## RTRYCRTGR [D3]
[1]; 8 weeks
  body size compared with the HFD group: smaller than that of the HFD group
  subcutaneous and visceral fat weight (inguinal subcutaneous, epididymis, perirenal) vs HFD group: significantly lower than that of the HFD group
[1]; after 3-4 weeks
  weekly feed intake vs control HFD group: significant difference in feed intake
[1]; intragastric 0.75 mg-3 mg/Kg once/day, after 8 weeks
  body weight decrease compared with the HFD group: 12.06%
A. muciniphila [2]
  relative abundance of A. muciniphila in the intestinal flora by qPCR: significantly increased
A. muciniphila [3]
  relative abundance of A. muciniphila in the intestine by qPCR: significantly increased
Guca2b
  mRNA level of UGN in the ileum: increased significantly
